Measured values: patent publication US5876715A, “Antibodies that bind novel carbohydrate ligands (myelorollins) that cause E-selectin dependent cell rolling, and uses thereof” (The Biomembrane Institute, priority 1996, dated 1999)
“Also recorded” adds a separate entry of the source.

Each substance was assayed on E-selectin-expressing CHO cells (assay: Static adhesion assay using 96-well plates coated with gangliosides). Details: static conditions; ganglioside coated on 96-well plates (25 to 200 ng); [3H]thymidine-labeled cells; control with mAb E1C.
Assay type: cell-based, Chinese hamster
Description: Adhesion of E-selectin-expressing CHO cells to various quantities of poly-LacNAc gangliosides coated on 96-well plates (Falcon, Becton-Dickinson, Lincoln Park, N.J.). Points represent mean experimental minus control value in the presence of mAb E1C, ±SE of triplicate experiments. .circle-solid.SLe^x -Le^x, Δ Fr. 10-1, .tangle-solidup. Fr. 10-2, .quadrature. Fr. 9, .smallcircle. Fr. 12-2.
Static adhesion assay using 96-well plates: Poly-LacNAc gangliosides with SLe^x -Le^x structure and Frs. 9, 10-1, 10-2 and 12-2, dissolved in 50% ethanol, were serially diluted in 96-well plates (the first well contained 200 ng), and plates were dried at 37° C. for 5 hr. Plates with similar serial dilutions of poly-LacNAc gangliosides were prepared for control cell adhesion in the presence of mAb E1C (see above). E-selectin-expressing CHO cells (Handa et al., Int. J. Oncol. 6:773-781 (1995)) were metabolically labeled with [^3 H] thymidine and incubated for 2 days. Cell suspension (2×10^6 per mL) was prepared by 2 mM EDTA treatment of cultured cells. A 50 μL aliquot of this cell suspension (containing 1×10^5 cells; approximately 5000 cpm) was added to each well and incubated for 1 hr. As a control, EDTA-harvested cells were washed with DMEM and incubated with mAb E1C on ice for 30 min, followed by preparation of cell suspension as above, but containing 10 μg mAb E1C per mL. Aliquots were added to each well and incubated as above. Cells were washed 3× with PBS by inversion of the plate on blotting paper. Adherent cell count as measured by ^3 H activity was determined.
Additional details of the experiment whose data are shown in FIGS. 1A and 1B are as follows: SLe^x -Le^x and poly-LacNAc gangliosides (Frs. 7, 9, 10-1, 10-2, 12-2, 13-1 and 14) dissolved in 50% ethanol were appropriately diluted and coated on wells of 96-well plates (amounts of 25 to 200 ng as shown on abscissa). Wells were dried at 37° C. for 5 hr. Two identical plates (1 and 2) were prepared in this way. To each well of plate 1, 50 μL aliquots of RPMI containing 1×10^5 E-selectin-expressing CHO cells metabolically labeled with [^3 H] thymidine were added. To each well of plate 2, aliquots of the same cell preparation preincubated with anti-E-selectin mAb E1C (10 μg Ig per mL) and suspended in RPMI containing mAb E1C were added. Plates 1 and 2 were incubated for 25 min. and washed with PBS. […] Each well was filled with 200 μL of PBS, carefully shaken, and plates were inverted on blotting paper for 10 min. All non-adherent cells were sedimented and absorbed on the blotting paper. Adherent cells remaining on wells were counted. Cell numbers (expressed on ordinate) were calculated based on measured radioactivity. Solid circle, SLe^x -Le^x without E1C (from plate 1). Open circle, SLe^x -Le^x with E1C (from plate 2). Adhesion values from various poly-LacNAc gangliosides with and without E1C were all near zero and cannot be distinguished on the graph.
Static adhesion assay using 96-well plates: Poly-LacNAc gangliosides with SLe^x -Le^x structure, and Fr. 9, 10-1, 10-2, and 12-2, dissolved in 50% ethanol, were serially diluted in 96-well plates (the first well contained […]), and plates were dried at 37° C. for 5 hr. Plates with similar serial dilutions of poly-LacNAc gangliosides were prepared for control cell adhesion in the presence of mAb E1C […] (see above). E-selectin-expressing CHO cells (Handa et al., 1995, Int. J. Oncol. 6:773-781) were metabolically labeled with [^3 H]thymidine and incubated for 2 days. Cell suspension (2×10^6 per mL) was prepared by 2 mM EDTA treatment of cultured cells. A 50 μL aliquot of this cell suspension (containing 1×10^5 cells; about 5000 cpm) was added to each well and incubated for 1 hr. As a control, EDTA-harvested cells were washed with DMEM and incubated with mAb E1C (10 μg/ml) on ice for 30 min, followed by preparation of cell suspension as above, but containing 10 μg E1C per mL. Aliquots were added to each well and incubated as above. […]

Substance	adhesion of E-selectin-expressing CHO cells
VIII^3 NeuAcIII^3 FucnLc8 Cer [Fr. 10-2]	little or no adhesion
VIII^3 NeuAcV^3 FucnLc8 Cer [Fr. 10-1]	little or no adhesion
VI^3 NeuAcV^3 FucIII^3 FucnLc6 Cer [SLe^x -Le^x, reference compound]	much stronger adhesion than myelorollin (Frs. 13-1 and 14); also recorded: capable of binding E-selectin expressing cells
VI^3 NeuAcnLc6 Cer [Fr. 7]	little or no adhesion
X^3 NeuAcVII^3 FucnLc10 Cer [Fr. 12-2]	little or no adhesion

Same assay, conditions: static conditions; ganglioside coated on 96-well plates (25 to 200 ng); [3H]thymidine-labeled cells; control with mAb E1C; listed as SLE^x -Le^x

Substance	adhesion of E-selectin-expressing CHO cells
VI^3 NeuAcV^3 FucIII^3 FucnLc6 Cer [SLe^x -Le^x, reference compound]	bound to E-selectin
